Data from US20230089867A1, “CYCLIC PENTAMER COMPOUNDS AS PROPROTEIN CONVERTASE SUBTILISIN/KEXIN TYPE 9 (PCSK9) INHIBITORS FOR THE TREATMENT OF METABOLIC DISORDER” (Novartis AG, priority 2018, published 2023).

Target: human PCSK9 (Homo sapiens, UniProt Q8NBP7)
Assay: PCSK9 ligand binding TR-FRET assay (interference with binding of human PCSK9 to human LDLR)
Settings: for Max % inhibition: PCSK9 FRET assay, efficacy (Amax), 100% = 1 uM unlabeled human PCSK9, 0% = DMSO; for IC50: TR-FRET, human PCSK9 Alexa Fluor 647 / human LDLR extracellular domain-Europium Kryptate, read-out: PCSK9 FRET Assay IC50
In short: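 Threefold compound dilutions were pre-incubated 30 min with PCSK9, after which 4 nM Europium Kryptate-tagged human LDLR ectodomain was added for a further 2 h.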

human PCSK9, sequence (Q8NBP7 153-692): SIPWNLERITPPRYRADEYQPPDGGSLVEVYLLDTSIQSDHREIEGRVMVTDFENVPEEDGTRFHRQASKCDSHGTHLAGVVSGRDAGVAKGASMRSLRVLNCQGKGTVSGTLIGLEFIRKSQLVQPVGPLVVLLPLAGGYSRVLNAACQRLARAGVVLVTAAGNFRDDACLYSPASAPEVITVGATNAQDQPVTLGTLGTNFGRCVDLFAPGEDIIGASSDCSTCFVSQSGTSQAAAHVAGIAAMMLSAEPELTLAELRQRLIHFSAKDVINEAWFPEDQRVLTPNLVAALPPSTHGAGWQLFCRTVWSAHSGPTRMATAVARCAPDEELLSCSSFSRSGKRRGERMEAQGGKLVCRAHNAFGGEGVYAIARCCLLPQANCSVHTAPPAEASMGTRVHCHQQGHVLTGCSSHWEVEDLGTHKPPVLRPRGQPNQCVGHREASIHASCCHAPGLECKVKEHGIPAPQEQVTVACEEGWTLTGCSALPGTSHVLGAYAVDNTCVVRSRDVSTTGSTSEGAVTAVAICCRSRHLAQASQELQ
human PCSK9, sequence (Q8NBP7 31-152 partner limits assumed): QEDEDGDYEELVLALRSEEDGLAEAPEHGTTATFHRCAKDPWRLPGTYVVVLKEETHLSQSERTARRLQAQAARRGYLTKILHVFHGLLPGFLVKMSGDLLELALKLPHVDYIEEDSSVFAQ

Max % inhibition | IC50 | Compound
78.14% | 304 nM | COC[C@@H]1NC(=O)[C@H](C)N(Cc2ccc(Cl)cc2Oc2ccc(-c3cnc(CN(C)C)n3C)cc2)C(=O)C[C@@H](CC(F)=C(F)F)C(=O)N(C)[C@H]2CCCC[C@@H]2NC(=O)C[C@H](Cc2ccc(Cl)cc2)N(C)C1=O [Compound 96, (4S,7S,10S,14S,16aS,20aS)-11-(4-chloro-2-(4-(2-((dimethylamino)methyl)-1-methyl-1H-imidazol-5-yl)phenoxy)benzyl)-4-(4-chlorobenzyl)-7-(methoxymethyl)-5,10,16-trimethyl-14-(2,3,3-trifluoroallyl)hexadecahydrobenzo[l][1,4,7,11,14]pentaazacyclooctadecine-2,6,9,12,15(3H)-pentaone]
46.03% | 77.8 nM | COC[C@@H]1NC(=O)[C@H](C)N(Cc2c(Cl)cccc2Oc2ccc(-c3cnc(CN(C)C)n3C)cc2)C(=O)C[C@@H](C)C(=O)N(C)[C@@H](C)CNC(=O)C[C@H](Cc2ccc(Cl)cc2)N(C)C1=O [Compound 230, (2S,5S,8S,13S,16R)-1-(2-chloro-6-(4-(2-((dimethylamino)methyl)-1-methyl-1H-imidazol-5-yl)phenoxy)benzyl)-8-(4-chlorobenzyl)-5-(methoxymethyl)-2,7,13,14,16-pentamethyl-1,4,7,11,14-pentaazacyclooctadecane-3,6,10,15,18-pentaone]
98.43% | 0.8 nM | COC[C@@H]1NC(=O)[C@H](C)N(Cc2ccc(Cl)cc2Oc2ccc(-c3cnc(CN4CCCC4)n3C)cc2)C(=O)C[C@@H](Cc2cccc(F)c2)C(=O)N(C)[C@@H](C)CNC(=O)C[C@H](Cc2ccc(Cl)cc2)N(C)C1=O [Compound 155, (2S,5S,8S,13S,16R)-1-(4-chloro-2-(4-(1-methyl-2-(pyrrolidin-1-ylmethyl)-1H-imidazol-5-yl)phenoxy)benzyl)-8-(4-chlorobenzyl)-16-(3-fluorobenzyl)-5-(methoxymethyl)-2,7,13,14-tetramethyl-1,4,7,11,14-pentaazacyclooctadecane-3,6,10,15,18-pentaone]
95.96% | 2.2 nM | COC[C@@H]1NC(=O)[C@H](C)N(Cc2ccc(Cl)cc2Oc2ccc(-c3cnc(CN(C)C)n3C)cc2)C(=O)C[C@@H](Cc2ccc(F)cn2)C(=O)N(C)[C@@H](C)CNC(=O)C[C@H](Cc2ccc(Cl)cc2)N(C)C1=O [Compound 45, (2S,5S,8S,13S,16R)-1-(4-chloro-2-(4-(2-((dimethylamino)methyl)-1-methyl-1H-imidazol-5-yl)phenoxy)benzyl)-8-(4-chlorobenzyl)-16-((5-fluoropyridin-2-yl)methyl)-5-(methoxymethyl)-2,7,13,14-tetramethyl-1,4,7,11,14-pentaazacyclooctadecane-3,6,10,15,18-pentaone]
101.56% | 1.5 nM | COC[C@@H]1NC(=O)[C@H](C)N(Cc2ccc(C)cc2Oc2ccc(-c3cnc(CN(C)C)n3C)cc2)C(=O)C[C@@H](Cc2ccccc2)C(=O)N(C)[C@@H](C)[C@H](C)NC(=O)C[C@H](Cc2ccc(Cl)cc2)N(C)C1=O [Compound 102, (2S,5S,8S,12S,13S,16R)-16-benzyl-8-(4-chlorobenzyl)-1-(2-(4-(2-((dimethylamino)methyl)-1-methyl-1H-imidazol-5-yl)phenoxy)-4-methylbenzyl)-5-(methoxymethyl)-2,7,12,13,14-pentamethyl-1,4,7,11,14-pentaazacyclooctadecane-3,6,10,15,18-pentaone]
79.08% | 9 nM | COC[C@@H]1NC(=O)[C@H](C)N(Cc2ccc(Cl)cc2Oc2ccc(-c3cnc(CN(C)C)n3C)cc2)C(=O)C[C@@H](C)C(=O)N(C)[C@H]2CCCC[C@@H]2NC(=O)C[C@H](Cc2ccc(Cl)cc2)N(C)C1=O [Compound 64, (4S,7S,10S,14R,16aS,20aS)-11-(4-chloro-2-(4-(2-((dimethylamino)methyl)-1-methyl-1H-imidazol-5-yl)phenoxy)benzyl)-4-(4-chlorobenzyl)-7-(methoxymethyl)-5,10,14,16-tetramethylhexadecahydrobenzo[l][1,4,7,11,14]pentaazacyclooctadecine-2,6,9,12,15(3H)-pentaone]
76.79% | 5.3 nM | CCC[C@@H]1CC(=O)N(Cc2ccc(Cl)cc2Oc2ccc(-c3cnc(CN(C)C)n3C)cc2)[C@@H](C)C(=O)N[C@@H](COC)C(=O)N(C)[C@@H](Cc2ccc(Cl)cc2)CC(=O)N[C@H]2CCCC[C@@H]2N(C)C1=O [Compound 263, (4S,7S,10S,14R,16aS,20aS)-11-(4-chloro-2-(4-(2-((dimethylamino)methyl)-1-methyl-1H-imidazol-5-yl)phenoxy)benzyl)-4-(4-chlorobenzyl)-7-(methoxymethyl)-5,10,16-trimethyl-14-propylhexadecahydrobenzo[l][1,4,7,11,14]pentaazacyclooctadecine-2,6,9,12,15(3H)-pentaone]
58.77% | 9.3 nM | COC[C@@H]1NC(=O)[C@H](C)N(Cc2ccc(Cl)cc2Oc2ccc(-c3c(C)nc(CN4CCCC4)n3C)cc2)C(=O)C[C@@H](Cc2ccccc2)C(=O)N(C)[C@@H](C)CNC(=O)C[C@H](Cc2ccc(Cl)cc2)N(C)C1=O [Compound 55, (2S,5S,8S,13S,16R)-16-benzyl-1-(4-chloro-2-(4-(1,4-dimethyl-2-(pyrrolidin-1-ylmethyl)-1H-imidazol-5-yl)phenoxy)benzyl)-8-(4-chlorobenzyl)-5-(methoxymethyl)-2,7,13,14-tetramethyl-1,4,7,11,14-pentaazacyclooctadecane-3,6,10,15,18-pentaone]
99.24% | 0.8 nM | COC[C@@H]1NC(=O)[C@H](CCCN2CCCC2)N(Cc2ccc(Cl)cc2Oc2ccc(-c3cnc(CN(C)C)n3C)cc2)C(=O)C[C@@H](Cc2ccccc2)C(=O)N(C)[C@H]2CCCC[C@@H]2NC(=O)C[C@H](Cc2ccc(Cl)cc2)N(C)C1=O [Compound 251, (4S,7S,10S,14R,16aS,20aS)-14-benzyl-11-(4-chloro-2-(4-(2-((dimethylamino)methyl)-1-methyl-1H-imidazol-5-yl)phenoxy)benzyl)-4-(4-chlorobenzyl)-7-(methoxymethyl)-5,16-dimethyl-10-(3-(pyrrolidin-1-yl)propyl)hexadecahydrobenzo[l][1,4,7,11,14]pentaazacyclooctadecine-2,6,9,12,15(3H)-pentaone]
54.93% | 10.3 nM | CCc1ncc(-c2ccc(Oc3cc(Cl)ccc3CN3C(=O)C[C@@H](Cc4ccccc4)C(=O)N(C)[C@@H](C)CNC(=O)C[C@H](Cc4ccc(Cl)cc4)N(C)C(=O)[C@H](COC)NC(=O)[C@@H]3C)cc2)n1C [Compound 181, (2S,5S,8S,13S,16R)-16-benzyl-1-(4-chloro-2-(4-(2-ethyl-1-methyl-1H-imidazol-5-yl)phenoxy)benzyl)-8-(4-chlorobenzyl)-5-(methoxymethyl)-2,7,13,14-tetramethyl-1,4,7,11,14-pentaazacyclooctadecane-3,6,10,15,18-pentaone]
